From ChEMBL document CHEMBL1129052, “2-[(2-Aminobenzyl)sulfinyl]-1-(2-pyridyl)-1,4,5,6-tetrahydrocyclopent[d]imidazoles as a novel class of gastric H+/K+-ATPase inhibitors” (J Med Chem, 1996)

Key:
[1] = biological target: T1, Potassium-transporting ATPase (Rattus norvegicus) (UniProt P09626+P18598); assay: Effect in vivo on gastric H+/K+ ATPase activity at 3 hrs following intraduodenal administration of 40 mg/Kg in rats; assay type: functional, organism-based; conditions: Stomach
[2] = biological target: T1, Potassium-transporting ATPase (Rattus norvegicus); assay: Effect in vivo on gastric H+/K+ ATPase activity at 6 hrs following intraduodenal administration of 40 mg/Kg in rats; assay type: functional, organism-based; conditions: Stomach
[3] = biological target: T1, Potassium-transporting ATPase (Rattus norvegicus); assay: Effect in vivo on gastric H+/K+ ATPase activity at 10 hrs following intraduodenal administration of 40 mg/Kg in rats; assay type: functional, organism-based; conditions: Stomach
[4] = biological target: T1, Potassium-transporting ATPase (Rattus norvegicus); assay: Effect in vivo on gastric H+/K+ ATPase activity at 1.5 hrs following intraduodenal administration of 40 mg/Kg in rats; assay type: functional, organism-based; conditions: Stomach
[5] = biological target: T1, Potassium-transporting ATPase (Rattus norvegicus); assay: Gastric antisecretory activity was tested in rats at 30 mg/kg, po expressed as the percentage of inhibition against the acid output of the control group; assay type: functional, organism-based; parameters: dose 30 mg/kg
[6] = biological target: Potassium-transporting ATPase (Sus scrofa, UniProt P19156); assay: In vitro inhibition against H+/K+ ATPase from porcine gastric mucosal membrane vesicles; assay type: tissue-based, Gastric mucosa
[7] = biological target: T1, Potassium-transporting ATPase (Rattus norvegicus); assay: Effect in vivo on gastric H+/K+ ATPase activity at 10 hrs following intraduodenal administration of 40 mg/Kg in rats injected intraperitoneally with 1 mg/Kg of cycloheximide; assay type: functional, organism-based; conditions: Stomach
[8] = biological target: T1, Potassium-transporting ATPase (Rattus norvegicus); assay: Effect in vivo on gastric H+/K+ ATPase activity at 24 hrs following intraduodenal administration of 40 mg/Kg in rats; assay type: functional, organism-based; conditions: Stomach
[9] = biological target: T1, Potassium-transporting ATPase (Rattus norvegicus); assay: Effect in vivo on gastric H+/K+ ATPase activity at 24 hrs following intraduodenal administration of 40 mg/Kg in rats injected intraperitoneally with 1 mg/Kg of cycloheximide; assay type: functional, organism-based; conditions: Stomach
[10] = biological target: T1, Potassium-transporting ATPase (Rattus norvegicus); assay: Effect in vivo on gastric H+/K+ -ATPase activity at 3 hrs following intraduodenal administration of 40 mg/Kg in rats; assay type: functional, organism-based; conditions: Stomach
[11] = biological target: T1, Potassium-transporting ATPase (Rattus norvegicus); assay: Effect in vivo on gastric H+/K+ -ATPase activity at 6 hrs following intraduodenal administration of 40 mg/Kg in rats; assay type: functional, organism-based; conditions: Stomach
[12] = biological target: T1, Potassium-transporting ATPase (Rattus norvegicus); assay: Effect in vivo on gastric H+/K+ ATPase activity at 48 hrs following intraduodenal administration of 40 mg/Kg in rats injected intraperitoneally with 1 mg/Kg of cycloheximide; assay type: functional, organism-based; conditions: Stomach
[13] = biological target: T1, Potassium-transporting ATPase (Rattus norvegicus); assay: Effect in vivo on gastric H+/K+ -ATPase activity at 24 hrs following intraduodenal administration of 40 mg/Kg in rats; assay type: functional, organism-based; conditions: Stomach
[14] = biological target: T1, Potassium-transporting ATPase (Rattus norvegicus); assay: Effect in vivo on gastric H+/K+ -ATPase activity at 48 hrs following intraduodenal administration of 40 mg/Kg in rats; assay type: functional, organism-based; conditions: Stomach

Chain of Potassium-transporting ATPase (P18434 whole entry): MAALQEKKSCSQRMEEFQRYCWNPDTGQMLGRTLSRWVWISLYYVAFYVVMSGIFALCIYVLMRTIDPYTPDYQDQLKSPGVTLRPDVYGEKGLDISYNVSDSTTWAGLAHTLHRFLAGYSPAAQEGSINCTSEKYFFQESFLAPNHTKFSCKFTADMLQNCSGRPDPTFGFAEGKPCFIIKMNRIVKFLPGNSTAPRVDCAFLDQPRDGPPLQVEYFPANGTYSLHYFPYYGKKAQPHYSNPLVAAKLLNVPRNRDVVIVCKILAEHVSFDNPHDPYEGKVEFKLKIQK
Chain of Potassium-transporting ATPase (P19156 whole entry): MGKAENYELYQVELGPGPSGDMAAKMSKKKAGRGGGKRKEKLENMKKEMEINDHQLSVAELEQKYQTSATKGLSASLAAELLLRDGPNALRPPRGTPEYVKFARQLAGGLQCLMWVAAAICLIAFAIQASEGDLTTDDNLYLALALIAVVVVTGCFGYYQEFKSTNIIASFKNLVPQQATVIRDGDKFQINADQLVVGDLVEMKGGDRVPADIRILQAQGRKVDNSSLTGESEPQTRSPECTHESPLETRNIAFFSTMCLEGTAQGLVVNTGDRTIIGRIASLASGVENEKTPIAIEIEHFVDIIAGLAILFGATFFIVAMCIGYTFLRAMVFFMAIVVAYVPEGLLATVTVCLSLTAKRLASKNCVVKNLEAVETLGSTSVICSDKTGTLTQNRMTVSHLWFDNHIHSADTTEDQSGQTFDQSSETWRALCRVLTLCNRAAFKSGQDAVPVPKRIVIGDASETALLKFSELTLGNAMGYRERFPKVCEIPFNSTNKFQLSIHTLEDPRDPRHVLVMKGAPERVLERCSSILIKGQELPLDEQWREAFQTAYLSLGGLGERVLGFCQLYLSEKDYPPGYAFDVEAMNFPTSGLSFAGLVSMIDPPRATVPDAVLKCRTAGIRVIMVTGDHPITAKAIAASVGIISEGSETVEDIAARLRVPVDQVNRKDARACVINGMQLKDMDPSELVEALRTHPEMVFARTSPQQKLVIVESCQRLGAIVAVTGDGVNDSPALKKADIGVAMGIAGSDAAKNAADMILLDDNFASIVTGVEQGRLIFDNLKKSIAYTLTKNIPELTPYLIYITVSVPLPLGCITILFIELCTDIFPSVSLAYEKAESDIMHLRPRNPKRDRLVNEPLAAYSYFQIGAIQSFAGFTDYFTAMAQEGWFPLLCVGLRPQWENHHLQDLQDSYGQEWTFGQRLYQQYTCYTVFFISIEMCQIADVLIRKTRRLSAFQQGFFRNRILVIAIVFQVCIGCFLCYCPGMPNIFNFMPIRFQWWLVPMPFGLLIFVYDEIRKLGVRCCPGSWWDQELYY

SMILES | Control [1] [%] | Control [2] [%] | Control [3] [%] | Control [4] [%] | inhibition [5] [%] | IC50 [6] [µM] | Control [7] [%] | Control [8] [%] | Control [9] [%] | Control [10] [%] | Control [11] [%] | Control [12] [%] | Control [13] [%] | Control [14] [%]
Cc1cccnc1-n1c([S+]([O-])Cc2ccccc2N)nc2c1CCC2 (configuration not stated) | 46 | 69.2 | 79.6 | 48.8 | 95 | > 100 | 72.9 | 88.9 | 95.4 |  |  |  |  | 
COc1ccc2[nH]c([S+]([O-])Cc3ncc(C)c(OC)c3C)nc2c1 (configuration not stated) |  |  |  | 45.4 | 100 |  |  |  | 36.1 | 37.1 | 27.8 | 34.1 | 51.7 | 71.1
